Source: ChEMBL document CHEMBL4823254, “Tetrahydroquinoline-Capped Histone Deacetylase 6 Inhibitor SW-101 Ameliorates Pathological Phenotypes in a Charcot-Marie-Tooth Type 2A Mouse Model” (J Med Chem, 2021)
pIC50: −log10 of the molar value. Each block holds one compound with its values, some of them ahead of it.

How the values were obtained:
[1] = molecular target: T1, Protein deacetylase HDAC6 (Mus musculus) (UniProt Q9Z2V5); assay: Inhibition of HDAC6 in mouse Neuro2a cells assessed as fold increase in ratio of acetylated alpha-tubulin to alpha tubulin at 1 uM incubated for overnight by Western blot analysis; assay type: cell-based; details: time 12.0 hrs
T1 sequence (whole entry): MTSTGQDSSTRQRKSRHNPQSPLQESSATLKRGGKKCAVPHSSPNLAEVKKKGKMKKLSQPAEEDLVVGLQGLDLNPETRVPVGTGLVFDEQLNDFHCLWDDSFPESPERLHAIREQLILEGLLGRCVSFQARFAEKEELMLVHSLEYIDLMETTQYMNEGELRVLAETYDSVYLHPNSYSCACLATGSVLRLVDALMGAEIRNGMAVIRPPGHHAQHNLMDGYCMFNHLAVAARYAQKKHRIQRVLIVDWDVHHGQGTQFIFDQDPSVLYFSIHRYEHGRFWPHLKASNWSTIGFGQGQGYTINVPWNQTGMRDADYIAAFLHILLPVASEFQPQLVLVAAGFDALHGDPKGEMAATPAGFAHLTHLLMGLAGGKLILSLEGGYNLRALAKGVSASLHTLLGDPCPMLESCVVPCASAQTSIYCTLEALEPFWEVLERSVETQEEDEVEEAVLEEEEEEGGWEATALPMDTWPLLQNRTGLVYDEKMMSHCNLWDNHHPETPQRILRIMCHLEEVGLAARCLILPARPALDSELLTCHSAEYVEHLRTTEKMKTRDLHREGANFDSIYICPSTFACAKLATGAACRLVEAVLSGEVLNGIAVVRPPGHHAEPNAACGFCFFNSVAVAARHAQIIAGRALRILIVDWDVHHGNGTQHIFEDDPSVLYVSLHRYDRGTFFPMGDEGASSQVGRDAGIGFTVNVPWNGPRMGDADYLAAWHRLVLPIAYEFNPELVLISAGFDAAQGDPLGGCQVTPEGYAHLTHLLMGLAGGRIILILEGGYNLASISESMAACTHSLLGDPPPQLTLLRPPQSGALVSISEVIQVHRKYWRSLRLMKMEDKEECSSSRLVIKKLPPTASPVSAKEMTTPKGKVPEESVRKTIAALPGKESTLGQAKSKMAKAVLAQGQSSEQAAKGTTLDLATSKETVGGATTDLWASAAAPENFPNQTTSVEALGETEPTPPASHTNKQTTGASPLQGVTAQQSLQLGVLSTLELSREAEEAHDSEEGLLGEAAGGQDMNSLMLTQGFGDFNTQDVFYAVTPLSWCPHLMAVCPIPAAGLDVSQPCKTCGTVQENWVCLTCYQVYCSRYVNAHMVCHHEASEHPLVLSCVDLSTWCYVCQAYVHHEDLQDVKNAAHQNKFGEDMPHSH

[2] = Half life in hepatocytes; assay type: ADME, cell-based, Hepatocyte
[3] = molecular target: T1, Protein deacetylase HDAC6 (Mus musculus); assay: In vivo inhibition of HDAC6 in wild type mouse assessed as increase in alpha-tubulin acetylation in sciatic nerve tissue at 20 mg/kg, ip administered for 12 hrs by immunoblot analysis relative to control; assay type: functional, organism-based; parameters: scale not given: the % may be the effect or the level left
Histone deacetylase 9 = Histone deacetylase 9 (Homo sapiens, UniProt Q9UKV0); assay: Inhibition of recombinant human HDAC9 using Boc-Lys(TFA)-AMC as substrate preincubated for 10 mins followed by substrate addition and measured after 30 mins by fluorescence-based assay
Chain of Histone deacetylase 9 (Q9UKV0 whole entry): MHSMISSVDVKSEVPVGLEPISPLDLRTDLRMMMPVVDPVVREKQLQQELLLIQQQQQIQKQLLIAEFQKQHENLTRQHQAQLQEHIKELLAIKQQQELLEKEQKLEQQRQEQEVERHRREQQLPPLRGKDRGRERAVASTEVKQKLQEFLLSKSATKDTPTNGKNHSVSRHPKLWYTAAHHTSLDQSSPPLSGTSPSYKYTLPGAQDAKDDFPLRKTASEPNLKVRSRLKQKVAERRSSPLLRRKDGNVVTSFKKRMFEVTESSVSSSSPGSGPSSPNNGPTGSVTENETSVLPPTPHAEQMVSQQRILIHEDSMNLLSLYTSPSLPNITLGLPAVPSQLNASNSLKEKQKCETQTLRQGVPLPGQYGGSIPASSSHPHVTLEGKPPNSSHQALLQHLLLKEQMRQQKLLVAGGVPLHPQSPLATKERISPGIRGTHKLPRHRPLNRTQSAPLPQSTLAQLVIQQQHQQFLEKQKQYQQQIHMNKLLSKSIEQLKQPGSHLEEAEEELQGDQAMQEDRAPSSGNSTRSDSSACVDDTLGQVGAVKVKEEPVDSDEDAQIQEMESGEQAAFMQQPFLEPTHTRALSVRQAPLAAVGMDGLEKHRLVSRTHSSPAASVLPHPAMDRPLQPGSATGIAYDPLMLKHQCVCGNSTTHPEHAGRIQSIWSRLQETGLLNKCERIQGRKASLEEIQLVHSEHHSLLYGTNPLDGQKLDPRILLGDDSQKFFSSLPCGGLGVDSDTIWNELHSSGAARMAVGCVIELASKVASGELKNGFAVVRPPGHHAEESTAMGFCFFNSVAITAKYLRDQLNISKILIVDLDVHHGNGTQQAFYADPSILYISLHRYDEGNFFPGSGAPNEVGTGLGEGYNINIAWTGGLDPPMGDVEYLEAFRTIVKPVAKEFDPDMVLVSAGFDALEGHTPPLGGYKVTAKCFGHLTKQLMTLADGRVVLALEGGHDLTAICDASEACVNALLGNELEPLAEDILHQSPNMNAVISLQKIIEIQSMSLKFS

Histone deacetylase 5 = Histone deacetylase 5 (Homo sapiens, UniProt Q9UQL6); assay: Inhibition of recombinant human HDAC5 using Boc-Lys(TFA)-AMC as substrate preincubated for 10 mins followed by substrate addition and measured after 30 mins by fluorescence-based assay
Chain of Histone deacetylase 5 (Q9UQL6 whole entry): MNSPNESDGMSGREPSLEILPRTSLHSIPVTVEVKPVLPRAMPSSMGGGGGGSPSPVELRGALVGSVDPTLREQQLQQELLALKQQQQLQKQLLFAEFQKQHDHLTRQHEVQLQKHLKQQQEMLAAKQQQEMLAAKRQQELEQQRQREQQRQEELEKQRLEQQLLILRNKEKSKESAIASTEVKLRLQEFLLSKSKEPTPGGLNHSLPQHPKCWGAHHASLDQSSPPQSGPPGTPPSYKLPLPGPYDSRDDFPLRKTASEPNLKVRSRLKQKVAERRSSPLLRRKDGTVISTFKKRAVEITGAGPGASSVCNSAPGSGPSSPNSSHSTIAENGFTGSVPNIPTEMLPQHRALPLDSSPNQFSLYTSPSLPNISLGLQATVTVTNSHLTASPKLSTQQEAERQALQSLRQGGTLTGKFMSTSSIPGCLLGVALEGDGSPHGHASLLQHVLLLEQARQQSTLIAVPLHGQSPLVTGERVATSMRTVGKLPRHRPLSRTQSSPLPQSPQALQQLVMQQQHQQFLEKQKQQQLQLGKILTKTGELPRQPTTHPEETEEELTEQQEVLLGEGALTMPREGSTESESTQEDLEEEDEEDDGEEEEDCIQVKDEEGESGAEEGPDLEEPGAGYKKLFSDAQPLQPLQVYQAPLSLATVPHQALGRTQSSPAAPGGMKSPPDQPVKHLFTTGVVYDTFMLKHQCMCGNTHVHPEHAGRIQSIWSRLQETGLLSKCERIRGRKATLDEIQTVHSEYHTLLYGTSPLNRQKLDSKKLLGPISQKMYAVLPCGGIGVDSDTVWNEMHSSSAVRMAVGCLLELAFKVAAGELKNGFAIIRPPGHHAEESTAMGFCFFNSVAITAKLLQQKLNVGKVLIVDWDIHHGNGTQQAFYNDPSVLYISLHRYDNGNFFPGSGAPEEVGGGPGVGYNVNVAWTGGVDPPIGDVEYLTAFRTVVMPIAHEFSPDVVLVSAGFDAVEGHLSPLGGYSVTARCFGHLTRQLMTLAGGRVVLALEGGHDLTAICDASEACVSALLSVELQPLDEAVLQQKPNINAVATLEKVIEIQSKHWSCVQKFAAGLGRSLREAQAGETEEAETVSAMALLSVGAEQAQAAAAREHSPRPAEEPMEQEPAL

[4] = Stability in human pooled liver microsomes assessed as parent compound remaining measured at 60 mins in presence of NADPH by LC-MS/MS analysis; assay type: ADME, Microsome
[5] = Half life in human pooled liver microsomes assessed as parent compound remaining measured up to 60 mins in presence of NADPH by LC-MS/MS analysis; assay type: ADME, Microsome
Histone deacetylase 4 = Histone deacetylase 4 (Homo sapiens, UniProt P56524); assay: Inhibition of recombinant human HDAC4 using Boc-Lys(TFA)-AMC as substrate preincubated for 10 mins followed by substrate addition and measured after 30 mins by fluorescence-based assay
Chain of Histone deacetylase 4 (P56524 whole entry): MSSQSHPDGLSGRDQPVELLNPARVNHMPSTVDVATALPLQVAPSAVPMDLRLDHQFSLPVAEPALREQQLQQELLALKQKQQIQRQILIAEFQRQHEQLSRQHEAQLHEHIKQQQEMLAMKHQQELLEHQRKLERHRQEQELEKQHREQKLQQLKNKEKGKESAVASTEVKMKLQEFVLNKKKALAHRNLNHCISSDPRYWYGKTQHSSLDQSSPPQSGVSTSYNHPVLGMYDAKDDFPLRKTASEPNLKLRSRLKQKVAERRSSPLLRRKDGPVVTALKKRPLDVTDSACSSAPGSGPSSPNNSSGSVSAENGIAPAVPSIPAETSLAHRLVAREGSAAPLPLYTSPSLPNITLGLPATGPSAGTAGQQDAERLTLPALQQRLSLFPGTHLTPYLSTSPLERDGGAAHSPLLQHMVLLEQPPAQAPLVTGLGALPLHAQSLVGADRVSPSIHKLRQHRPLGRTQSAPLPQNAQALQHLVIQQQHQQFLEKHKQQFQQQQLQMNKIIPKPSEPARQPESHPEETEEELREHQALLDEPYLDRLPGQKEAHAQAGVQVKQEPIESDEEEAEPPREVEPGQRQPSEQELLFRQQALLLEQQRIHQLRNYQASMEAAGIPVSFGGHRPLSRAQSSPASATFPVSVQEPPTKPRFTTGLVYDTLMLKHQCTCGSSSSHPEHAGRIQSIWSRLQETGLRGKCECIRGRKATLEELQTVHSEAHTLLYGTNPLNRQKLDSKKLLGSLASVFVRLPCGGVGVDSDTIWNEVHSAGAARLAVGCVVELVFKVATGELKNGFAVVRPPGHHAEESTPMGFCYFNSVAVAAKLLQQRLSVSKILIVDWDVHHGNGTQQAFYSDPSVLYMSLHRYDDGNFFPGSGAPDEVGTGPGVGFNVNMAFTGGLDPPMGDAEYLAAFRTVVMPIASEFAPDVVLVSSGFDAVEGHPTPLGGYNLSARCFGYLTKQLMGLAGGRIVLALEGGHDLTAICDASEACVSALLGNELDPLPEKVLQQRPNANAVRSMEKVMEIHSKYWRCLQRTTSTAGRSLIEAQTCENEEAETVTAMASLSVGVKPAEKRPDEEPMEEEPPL

Histone deacetylase 3 = Histone deacetylase 3 (Homo sapiens, UniProt O15379); assay: Inhibition of recombinant human HDAC3 using Ac-GAK(Ac)-AMC as substrate preincubated for 10 mins followed by substrate addition and measured after 30 mins by fluorescence-based assay
Chain of Histone deacetylase 3 (O15379 whole entry): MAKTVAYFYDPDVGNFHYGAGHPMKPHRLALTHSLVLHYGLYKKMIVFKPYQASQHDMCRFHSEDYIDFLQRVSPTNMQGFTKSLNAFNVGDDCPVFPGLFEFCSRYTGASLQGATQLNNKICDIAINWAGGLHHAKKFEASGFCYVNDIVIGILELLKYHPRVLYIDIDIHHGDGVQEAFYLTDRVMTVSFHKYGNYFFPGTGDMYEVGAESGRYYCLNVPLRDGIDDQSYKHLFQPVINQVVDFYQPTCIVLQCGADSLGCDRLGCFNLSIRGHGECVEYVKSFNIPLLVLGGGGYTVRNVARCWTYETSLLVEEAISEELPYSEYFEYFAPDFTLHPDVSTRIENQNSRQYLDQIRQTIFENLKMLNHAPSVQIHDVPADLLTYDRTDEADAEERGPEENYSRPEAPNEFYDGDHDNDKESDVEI

Histone deacetylase 8 = molecular target: T2, Histone deacetylase 8 (Homo sapiens, UniProt Q9BY41)
T2 sequence (Q9BY41 whole entry): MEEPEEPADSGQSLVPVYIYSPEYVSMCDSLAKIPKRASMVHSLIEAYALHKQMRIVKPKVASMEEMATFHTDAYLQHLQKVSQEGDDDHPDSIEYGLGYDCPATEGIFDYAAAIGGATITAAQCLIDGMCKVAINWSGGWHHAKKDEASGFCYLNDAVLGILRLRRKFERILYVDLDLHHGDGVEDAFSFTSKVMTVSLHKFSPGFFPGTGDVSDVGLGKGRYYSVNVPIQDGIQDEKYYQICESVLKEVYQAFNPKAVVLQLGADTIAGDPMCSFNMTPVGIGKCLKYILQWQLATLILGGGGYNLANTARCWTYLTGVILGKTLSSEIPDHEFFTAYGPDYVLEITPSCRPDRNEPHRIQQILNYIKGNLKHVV
Description: Inhibition of recombinant human HDAC8 using Boc-Lys(TFA)-AMC as substrate preincubated for 10 mins followed by substrate addition and measured after 30 mins by fluorescence-based assay

[6] = molecular target: T1, Protein deacetylase HDAC6 (Mus musculus); assay: Inhibition of HDAC6 in mouse Neuro2a cells assessed as fold increase in ratio of acetylated alpha-tubulin to alpha tubulin at 0.01 uM incubated for overnight by Western blot analysis; assay type: cell-based; details: time 12.0 hrs
Histone deacetylase 2 = Histone deacetylase 2 (Homo sapiens, UniProt Q92769); assay: Inhibition of recombinant human HDAC2 using Ac-GAK(Ac)-AMC as substrate preincubated for 10 mins followed by substrate addition and measured after 30 mins by fluorescence-based assay
Chain of Histone deacetylase 2 (Q92769 whole entry): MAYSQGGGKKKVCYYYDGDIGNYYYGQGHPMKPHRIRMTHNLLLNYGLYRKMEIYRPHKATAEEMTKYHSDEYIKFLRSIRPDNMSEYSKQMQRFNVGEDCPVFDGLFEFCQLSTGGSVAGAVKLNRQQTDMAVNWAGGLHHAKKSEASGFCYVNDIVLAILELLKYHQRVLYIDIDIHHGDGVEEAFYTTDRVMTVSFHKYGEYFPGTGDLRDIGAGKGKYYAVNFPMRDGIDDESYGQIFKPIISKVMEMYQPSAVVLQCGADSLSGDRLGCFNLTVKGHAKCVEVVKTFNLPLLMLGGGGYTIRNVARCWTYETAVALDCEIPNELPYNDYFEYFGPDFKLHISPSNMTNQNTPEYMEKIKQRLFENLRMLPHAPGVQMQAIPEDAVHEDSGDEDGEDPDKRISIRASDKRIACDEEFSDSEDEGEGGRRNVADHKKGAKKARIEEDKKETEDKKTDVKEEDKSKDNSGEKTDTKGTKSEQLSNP

[7] = Half life in CD1 mouse pooled liver microsomes assessed as parent compound remaining measured up to 60 mins in presence of NADPH by LC-MS/MS analysis; assay type: ADME, Microsome; details: CD1, mouse, pooled liver microsomes
Histone deacetylase 7 = molecular target: T3, Histone deacetylase 7 (Homo sapiens, UniProt Q8WUI4)
T3 sequence (Q8WUI4 whole entry): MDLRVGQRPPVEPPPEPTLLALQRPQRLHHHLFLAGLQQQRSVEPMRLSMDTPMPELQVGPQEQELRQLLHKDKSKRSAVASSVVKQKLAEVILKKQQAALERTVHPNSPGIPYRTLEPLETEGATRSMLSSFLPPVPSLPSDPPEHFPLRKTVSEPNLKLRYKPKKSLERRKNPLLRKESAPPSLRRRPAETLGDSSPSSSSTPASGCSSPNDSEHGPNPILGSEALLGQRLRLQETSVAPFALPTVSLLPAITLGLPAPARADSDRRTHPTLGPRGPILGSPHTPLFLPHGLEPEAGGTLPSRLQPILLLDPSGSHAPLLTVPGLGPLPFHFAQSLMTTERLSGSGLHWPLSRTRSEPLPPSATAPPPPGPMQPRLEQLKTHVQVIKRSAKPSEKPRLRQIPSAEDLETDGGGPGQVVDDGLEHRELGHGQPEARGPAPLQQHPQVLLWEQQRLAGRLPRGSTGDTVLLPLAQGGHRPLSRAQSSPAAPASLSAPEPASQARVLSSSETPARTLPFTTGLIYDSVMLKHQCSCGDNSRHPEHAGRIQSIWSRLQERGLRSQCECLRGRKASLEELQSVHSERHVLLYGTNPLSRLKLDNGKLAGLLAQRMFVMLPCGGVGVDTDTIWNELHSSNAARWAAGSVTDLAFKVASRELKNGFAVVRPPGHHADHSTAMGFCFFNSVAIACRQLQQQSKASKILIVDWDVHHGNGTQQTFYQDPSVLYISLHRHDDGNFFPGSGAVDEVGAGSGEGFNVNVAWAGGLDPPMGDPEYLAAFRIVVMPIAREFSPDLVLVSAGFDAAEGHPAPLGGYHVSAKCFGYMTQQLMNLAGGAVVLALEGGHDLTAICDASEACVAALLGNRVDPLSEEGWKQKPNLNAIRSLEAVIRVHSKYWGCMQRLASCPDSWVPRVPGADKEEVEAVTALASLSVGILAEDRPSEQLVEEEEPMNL
Description: Inhibition of recombinant human HDAC7 using Boc-Lys(TFA)-AMC as substrate preincubated for 10 mins followed by substrate addition and measured after 30 mins by fluorescence-based assay

[8] = Half life in liver microsomes; assay type: ADME, Microsome
[9] = Stability in CD1 mouse pooled liver microsomes assessed as parent compound remaining measured at 60 mins in presence of NADPH by LC-MS/MS analysis; assay type: ADME, Microsome; details: CD1, mouse, pooled liver microsomes, read-out: Stabilty
[10] = molecular target: T4, Protein deacetylase HDAC6 (Homo sapiens, UniProt Q9UBN7); assay: biochemical
T4 sequence (Q9UBN7 whole entry): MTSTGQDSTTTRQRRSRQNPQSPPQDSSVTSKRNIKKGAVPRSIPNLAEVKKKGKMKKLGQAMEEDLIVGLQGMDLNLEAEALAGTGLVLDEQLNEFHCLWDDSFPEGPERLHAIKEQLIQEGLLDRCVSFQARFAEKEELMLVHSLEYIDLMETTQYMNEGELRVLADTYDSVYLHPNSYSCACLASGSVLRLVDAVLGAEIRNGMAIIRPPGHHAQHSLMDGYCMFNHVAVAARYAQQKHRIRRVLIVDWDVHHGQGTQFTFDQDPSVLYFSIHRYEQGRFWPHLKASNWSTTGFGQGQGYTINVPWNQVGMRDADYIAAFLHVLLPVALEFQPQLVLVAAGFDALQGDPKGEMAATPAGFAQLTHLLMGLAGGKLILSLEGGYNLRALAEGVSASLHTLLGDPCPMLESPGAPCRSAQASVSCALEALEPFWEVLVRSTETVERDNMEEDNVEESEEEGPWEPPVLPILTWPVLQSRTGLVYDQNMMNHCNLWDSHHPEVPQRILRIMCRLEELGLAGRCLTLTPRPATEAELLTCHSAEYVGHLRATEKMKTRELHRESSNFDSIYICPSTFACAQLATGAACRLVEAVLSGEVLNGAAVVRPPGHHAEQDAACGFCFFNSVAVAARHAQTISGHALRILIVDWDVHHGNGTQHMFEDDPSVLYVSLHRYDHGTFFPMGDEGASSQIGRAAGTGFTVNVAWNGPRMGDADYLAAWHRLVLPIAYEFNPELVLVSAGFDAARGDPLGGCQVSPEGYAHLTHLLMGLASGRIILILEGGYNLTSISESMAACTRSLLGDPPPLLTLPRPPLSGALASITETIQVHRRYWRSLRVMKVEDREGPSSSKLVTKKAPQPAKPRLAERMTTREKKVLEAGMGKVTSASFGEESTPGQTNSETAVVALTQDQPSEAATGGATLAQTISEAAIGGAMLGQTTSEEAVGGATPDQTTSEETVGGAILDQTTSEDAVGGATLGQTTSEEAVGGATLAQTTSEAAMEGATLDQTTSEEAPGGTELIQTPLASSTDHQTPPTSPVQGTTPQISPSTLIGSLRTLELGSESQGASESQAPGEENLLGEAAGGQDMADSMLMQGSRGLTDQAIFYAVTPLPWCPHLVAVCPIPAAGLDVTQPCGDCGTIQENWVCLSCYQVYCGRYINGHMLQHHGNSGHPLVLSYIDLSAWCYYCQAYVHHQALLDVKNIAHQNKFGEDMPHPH
Description: Inhibition of full length recombinant N-terminal GST-tagged human HDAC6 expressed in baculovirus infected Sf9 insect cells using RHK-K(Ac)-AMC peptide as substrate measured after 90 mins by fluorimetry analysis

Homo sapiens = organism: Homo sapiens; assay: Selectivity index, ratio of IC50 for full length recombinant C-terminal FLAG-His-tagged human HDAC1 expressed in baculovirus infected Sf21 insect cells using RHK-K(Ac)-AMC peptide as substrate measured after 60 mins by fluorimetry analysis to IC50 for full length recombinant N-terminal GST-tagged …
Description: Selectivity index, ratio of IC50 for full length recombinant C-terminal FLAG-His-tagged human HDAC1 expressed in baculovirus infected Sf21 insect cells using RHK-K(Ac)-AMC peptide as substrate measured after 60 mins by fluorimetry analysis to IC50 for full length recombinant N-terminal GST-tagged human HDAC6 expressed in baculovirus infected Sf9 insect cells using RHK-K(Ac)-AMC peptide as substrate measured after 90 mins by fluorimetry analysis

Histone deacetylase 1 = Histone deacetylase 1 (Homo sapiens, UniProt Q13547); assay: Inhibition of full length recombinant C-terminal FLAG-His-tagged human HDAC1 expressed in baculovirus infected Sf21 insect cells using RHK-K(Ac)-AMC peptide as substrate measured after 60 mins by fluorimetry analysis
Chain of Histone deacetylase 1 (Q13547 whole entry): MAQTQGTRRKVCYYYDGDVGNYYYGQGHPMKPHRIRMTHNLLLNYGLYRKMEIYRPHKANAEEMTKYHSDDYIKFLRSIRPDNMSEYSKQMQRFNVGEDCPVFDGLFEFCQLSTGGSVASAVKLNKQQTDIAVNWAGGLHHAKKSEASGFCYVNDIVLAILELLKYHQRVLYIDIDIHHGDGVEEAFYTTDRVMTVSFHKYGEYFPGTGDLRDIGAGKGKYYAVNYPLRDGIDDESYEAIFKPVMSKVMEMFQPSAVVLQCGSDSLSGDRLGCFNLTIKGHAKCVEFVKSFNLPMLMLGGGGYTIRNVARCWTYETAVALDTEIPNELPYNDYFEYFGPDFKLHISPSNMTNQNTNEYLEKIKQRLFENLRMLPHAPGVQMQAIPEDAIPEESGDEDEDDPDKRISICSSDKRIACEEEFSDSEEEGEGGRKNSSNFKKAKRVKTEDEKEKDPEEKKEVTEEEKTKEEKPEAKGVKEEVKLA

fold change (FC) [1]: 1
half-life [2]: < 30 min
Activity [3]: 125%
pIC50 (Histone deacetylase 9): 5.47
pIC50 (Histone deacetylase 5): 5.83
Stabilty ([4]; microsomes, 1 h): 42.6%
t1/2 ([5]; microsomes, 1 h): 483 min
pIC50 (Histone deacetylase 4): 5.67
pIC50 (Histone deacetylase 3): 5.90
pIC50 (Histone deacetylase 8): 5.51
fold change (FC) [6]: 1
pIC50 (Histone deacetylase 2): 6.55
half-life [7]: 31.9 min
pIC50 (Histone deacetylase 7): 6.29
half-life [8]: < 30 min
remaining at 1 h [9]: 27.3%
Structure (SMILES): O=C(NO)c1ccc(CN2CCCc3cc(Cl)ccc32)cc1

remaining at 1 h ([4]; pooled liver microsomes, read-out: Stabilty): 73%
pIC50 [10]: 4.96
half-life ([5]; pooled liver microsomes): 182 min
half-life [7]: 40.4 min
pIC50 (Histone deacetylase 1): 7.82
remaining at 1 h [9]: 34.1%
Structure (SMILES): O=C(NO)c1ccc(CN2CCCc3ccccc32)cc1
Ratio IC50 (Homo sapiens): 733
